Assay results published in PubChem BioAssay (NCI).
Several values for one entry are separate records, joined by “and”; a condition that tells them apart may be missing. Equal values may be shown once.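 Briefly, cells in 96-well plates were exposed to five compound concentrations for 48 h, and endpoints were estimated by linear interpolation. GI50 is the concentration that inhibits growth by half. TGI: total growth inhibition.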

Columns and labels:
Test in all cases: inhibition of tumour cell growth, NCI panel, 48 h
[1] = tested on: SF-539 CNS
[2] = tested on: RPMI-8226 leukemia
[3] = tested on: M14 melanoma
[4] = tested on: U251 CNS

Row | Compound | TGI [1] | TGI [2] | TGI [3] | TGI [4] | GI50 [1]
1 | Oc1cccc(-c2nc3cc(F)ccc3s2)c1 | 55.8 µM | 54.3 µM | 37.8 µM | 76.7 µM | –
2 | C=C(Cl)C(C)(Cl)CCC(Br)C(C)(C)Cl (centres undefined) | 71.7 µM | 50.6 µM | 34.7 µM | 29.8 µM | –
3 | Nc1ccc(S2(c3ccc(N)cc3)C=C(c3ccccc3)C(c3ccccc3)=C2)cc1 | > 100 µM | > 100 µM | > 100 µM | > 100 µM | –
4 | C#C[C@]1(O)CC[C@H]2[C@@H]3CCC4=C/C(=N/OC(=O)c5cccc6c(=O)c7ccccc7[nH]c56)CC[C@@H]4[C@H]3CC[C@@]21C | > 100 µM | 54 µM | > 100 µM | > 100 µM | –
5 | COc1ccc2c(cnc3c4cc(OC)c(OC)cc4ccc23)c1 | > 100 µM | – | > 100 µM | > 100 µM | –
6 | CC1=C(CO)C(=O)O[C@@H]([C@@H](CO)[C@H]2CCC3C4C[C@@H](O)[C@@]5(O)CC=CC(=O)[C@]5(C)C4CC[C@@]32C)C1 (some centres undefined) | > 100 µM | > 100 µM | > 100 µM | – | –
7 | Nc1nc(Cl)cc(NCC2(CO)CCCC2)n1 | > 100 µM | > 100 µM | > 100 µM | > 100 µM | –
8 | O=c1oc2ccc([N+](=O)[O-])cc2c(Nc2ccc3c(c2)Oc2ccccc2O3)c1[N+](=O)[O-] | 61.1 µM | 70.2 µM | > 100 µM | 38.7 µM | –
9 | CCOC(=O)NC(Nc1ccc([N+](=O)[O-])cc1)(C(F)(F)F)C(F)(F)F | > 100 µM | > 100 µM | > 100 µM | > 100 µM | –
10 | COc1cc(OC)c(C2c3cc4c(cc3OC(N3CCCC3)C2C)OCO4)c(OC)c1 (centres undefined) | 25.9 µM | 43.1 µM | 28.6 µM | – | –
11 | O=C1C(=Cc2ccccc2O)N=C(c2ccccc2)N1n1c(-c2ccccc2)nc2ccccc2c1=O | 50 µM | > 100 µM | 57.1 µM | – | –
12 | CCOC(=O)C1C2CCC1CC(=NNc1ccc([N+](=O)[O-])cc1[N+](=O)[O-])C2 (centres undefined) | > 50 µM | > 50 µM | > 50 µM | > 50 µM | –
13 | C=C1CN2CC(=C)CN(C1)CS(=O)(=O)N1CC(=C)CN(CC(=C)C1)S(=O)(=O)N1CC(=C)CN(CC(=C)C1)S(=O)(=O)C2 | 39.9 µM | > 100 µM | > 100 µM | > 100 µM | –
14 | COc1ccc2c(c1)CCN1CCc3ccccc3CC21 (centres undefined) | > 100 µM | 54.9 µM | 36.6 µM | > 100 µM | –
15 | COc1ccc(NS(=O)(=O)c2ccc(NC(NC(=O)CC(C)C)(C(F)(F)F)C(F)(F)F)cc2)nn1 | > 100 µM | > 100 µM | > 100 µM | > 100 µM | –
16 | O=C1/C(=C/c2ccc(Cl)cc2)CSc2ccccc21 | 35.7 µM | 5.29 µM | > 100 µM | 24.6 µM | –
17 | CCCCN=C(c1ccccc1)N1CCOCC1 | > 100 µM | > 100 µM | > 100 µM | > 100 µM | –
18 | Cc1ccc(O)c(-c2cscn2)c1 | > 100 µM | > 100 µM | > 100 µM | – | –
19 | Cn1c2ccccc2c(=O)c2cccc(C(=O)NC(CCCN=C(N)N)C(=O)O)c21 (centres undefined) | > 100 µM | > 100 µM | > 100 µM | > 100 µM | –

Row | Compound | TGI [1] | TGI [2] | TGI [3] | TGI [4] | GI50 [1]
20 | C=CCOc1ccc(C2C(C(=O)OCC)C(=O)CC(C)(O)C2C(=O)OCC)cc1OC (centres undefined) | > 100 µM | > 100 µM | > 100 µM | > 100 µM | –
21 | Cc1ccc(S(=O)(=O)NC(=O)N[C@@H](Cc2cnc[nH]2)C(=O)O)cc1 | > 100 µM | > 100 µM | > 100 µM | > 100 µM | –
22 | CN(C)CCOC1(Cc2ccc(F)cc2)CCC(C(C)(C)C)CC1 (centres undefined) | 19.1 µM and 27.1 µM | 5.09 µM and 7.79 µM | 3.27 µM and 3.93 µM | 17.3 µM and 19.2 µM | 5.73 µM and 13.4 µM
23 | O=C1O[C@H](c2ccc3c(c2)OCO3)[C@H]2CO[C@@H](c3ccc4c(c3)OCO4)[C@@H]12 | > 100 µM | > 100 µM | > 100 µM | > 100 µM | –
24 | CCOC(=O)NC(Nc1cccc(C(F)(F)F)c1)(C(F)(F)F)C(F)(F)F | > 100 µM | > 100 µM | > 100 µM | > 100 µM | –
25 | Cc1cc(NCc2ccccc2)c2ccccc2[n+]1CCCCCCCCCC[n+]1c(C)cc(NCc2ccccc2)c2ccccc21 | 1.13 µM | 1.44 µM | 3.22 µM | 0.795 µM | –
26 | CSc1cnc2ccccc2c1SC1CN(Cc2ccccc2)c2ccccc2C1=O (centres undefined) | > 100 µM | > 100 µM | > 100 µM | > 100 µM | –
27 | S=C(Nc1ccc2c(c1)oc1ccccc12)c1cccnc1 | – | > 100 µM | > 100 µM | 89.7 µM | –
28 | Cc1cc(S(=O)(=O)Nc2nc3cc(-c4ccc(Cl)cc4)sc3c(=O)n2N)c(S)cc1Cl | – | > 100 µM | > 100 µM | > 100 µM | –
29 | N#Cc1c(Cl)cc(Cl)n2c1nc1ccccc12 | 12 µM | 58.9 µM | 24.5 µM | 55.5 µM | –
30 | O=C(O)c1ccc(OCc2nc3cc(C(F)(F)F)ccc3nc2-c2ccccc2)cc1 | 76.8 µM | – | > 100 µM | > 100 µM | –
31 | COc1ccc(/C=C2\N=C(SC)NC2=O)cc1 | > 100 µM | > 100 µM | > 100 µM | > 100 µM | –
32 | Cn1c(COC(=O)Nc2ccccc2)c(COC(=O)Nc2ccccc2)c2ccc3cc(Cl)c(Cl)cc3c21 | 44.6 µM | – | 19.6 µM | 5.01 µM | –
33 | Cc1ccc2c(c1)C(=O)C1(C2)Cc2cccc(C)c2C1=O (centres undefined) | > 100 µM | > 100 µM | > 100 µM | > 100 µM | –
34 | CC(C)(C)OC(=O)NCCCNC1(c2cc3ccccc3s2)CCCCC1 | 34.2 µM | 13.7 µM | 25 µM | 74.8 µM | –
35 | CC(C)CC(O)P(=O)(O)O (centres undefined) | – | > 100 µM | > 100 µM | > 100 µM | –
36 | C=C([C@@]1(O)C[C@H]2[C@H](CCC2(OC)OC)[C@@H]2c3ccccc3O[C@@H]21)[Si](C)(C)C | > 100 µM | > 100 µM | > 100 µM | > 100 µM | –
37 | CC(=O)O[C@H]1CC[C@@]2(C)C(=CC[C@H]3[C@@H]4C[C@H](N5CCOCC5)[C@H](OC(C)=O)[C@@]4(C)CC[C@@H]32)C1 | > 100 µM | > 100 µM | > 100 µM | > 100 µM | –
38 | N#CC1=C(N)N(c2ccccc2)C(c2ccccc2)C1(C#N)C#N (centres undefined) | 32.5 µM | 37 µM | 44.9 µM | 32.4 µM | –

Row | Compound | TGI [1] | TGI [2] | TGI [3] | TGI [4] | GI50 [1]
39 | CC(=O)NC1c2ccccc2C(C)(C)C12CCC1(CC2)OCCO1 (centres undefined) | > 100 µM | > 100 µM | > 100 µM | > 100 µM | –
40 | COc1nc2nccnc2c(=O)n1C | > 10 µM | > 10 µM | > 10 µM | > 10 µM | –
41 | CC1=NNC(=O)C1C(CC(=O)c1c[nH]c2ccccc12)C(=O)O (centres undefined) | > 100 µM | > 100 µM | > 100 µM | > 100 µM | –
42 | CCC/C(Cl)=N\OC(=O)Nc1ccc(OC(F)(F)F)cc1 | 33.3 µM | 4.43 µM | 18.5 µM | > 58.1 µM | –
43 | O=C1c2cccnc2-c2nccc3c2c1nc1cc(Br)ccc13 | 0.709 µM | 0.448 µM | 0.163 µM | 0.288 µM | –
44 | Nc1ccc(C(=O)N2CCC[C@H]2CO)c(N)c1 | > 100 µM | > 100 µM | > 100 µM | > 100 µM | –
45 | CC12CCC(O)CC1CCC1C2CCC2(C)C(C(=O)CC(O)C(F)(F)F)CCC12 (centres undefined) | > 92.9 µM | 26.6 µM | > 100 µM | > 100 µM | –
46 | C[N+]12CCCCC1C(CN1C(=O)Cc3c4ccccc4c(c4ccccc34)CC1=O)CCC2 (centres undefined) | > 100 µM | > 100 µM | > 100 µM | > 100 µM | –
47 | CSc1ncnc2c1ncn2CCC#N | > 100 µM | > 100 µM | > 100 µM | – | –
48 | NC(CCC(=O)NC(CSCC1C(=O)Nc2ccccc21)C(=O)NCC(=O)O)C(=O)O (centres undefined) | 18.3 µM | 6.52 µM | 10.8 µM | 18.3 µM | –
49 | [N-]=[N+]=NC1=C(c2ccccn2)C(=O)c2cccc3cccc1c23 | > 100 µM | > 100 µM | > 100 µM | > 100 µM | –
50 | CN1[C@@H]2C[C@@H](OC(=O)[C@H](CO)c3ccccc3)C[C@H]1[C@@H]1O[C@@H]12 | – | > 100 µM | > 100 µM | – | –
51 | CCOc1ccc(/C=C2/C(=O)N=C(NC(C)=O)N2C)cc1 | > 100 µM | – | > 100 µM | > 100 µM | –
52 | CC(C)NC(=O)OCCN=c1c2ccccc2ccc2ccccc12 | > 100 µM | – | > 100 µM | > 100 µM | –
53 | COc1ccc(N2C(=O)CSC2c2c[nH]c3ccccc23)cc1 (centres undefined) | – | – | > 100 µM | > 100 µM | –
54 | Nc1[nH]nc2nc3ccc(C(F)(F)F)cc3nc12 | – | > 100 µM | > 100 µM | > 100 µM | –
55 | O=C1c2ccccc2C2(c3ccc(Cl)cc3)N[C@H]3CCCC[C@@H]3N12 (some centres undefined) | – | > 100 µM | – | > 100 µM | –
56 | COC(=O)C1CCCN1C(=O)C(Cc1cn(S(=O)(=O)c2ccc(C)cc2)cn1)NC(=O)OC(C)(C)C (centres undefined) | – | > 100 µM | > 100 µM | > 100 µM | –
